{"source": "patent US20060134248A1", "about": "“Hop acids as a replacement for antibiotics in animal feed” (priority 2002, published 2006)", "conditions_in_all_cases": "hop acids 2 ppm, monensin 6 ppm", "key": {"[1]": {"test_system": "Isotrichia", "test": "In vitro microbe measurements: protozoa count, Isotrichia"}, "[2]": {"test_system": "total bacteria", "test": "In vitro microbe measurements: bacterial purine (measurement of total bacteria)", "assay_type": "cell-based", "description": "Proprionate is largely responsible for animal growth. […] There appears to be no effect on alfalfa protozoa and alfalfa bacterial purine by the beta acids. Again, reduction in protozoa and bacteria levels means more food and energy for animal growth."}, "[3]": {"test_system": "Entodiniomorph spp", "test": "In vitro microbe measurements: protozoa count, Entodiniomorph spp / Entodinia"}}, "note": "Marks after values point to notes of the source that are not given here.", "data": [{"smiles": "CC[C@@]1([C@@H]2O[C@@H]([C@H]3O[C@@](O)(CO)[C@H](C)C[C@@H]3C)C[C@@H]2C)CC[C@H]([C@]2(C)CC[C@]3(C[C@H](O)[C@@H](C)[C@@H]([C@@H](C)[C@@H](OC)[C@H](C)C(=O)O)O3)O2)O1", "note": "[monensin]", "values": [{"measurement": "Protozoa, Isotrichia", "setting": "[1]; alfalfa", "value": "0^c × 10^3 no/mL"}, {"measurement": "Protozoa, Isotricha", "setting": "[1]; barley", "value": "0 × 10^3 no/mL"}, {"measurement": "Protozoa, Isotricha", "setting": "[1]; corn", "value": "0.7 × 10^3 no/mL"}, {"measurement": "Bacterial purines", "setting": "[2]; alfalfa", "value": "2.6^c mg/tube"}, {"measurement": "Protozoa and bacterial purines versus control, in words", "setting": "[2]; alfalfa", "value": "most effectively eliminate"}, {"measurement": "Bacterial purines", "setting": "[2]; barley", "value": "1.5^b mg/tube"}, {"measurement": "Bacterial purines", "setting": "[2]; corn", "value": "1.4^a Mg/tube"}, {"measurement": "Protozoa, Entodinia", "setting": "[3]; alfalfa", "value": "6^c × 10^3 no/mL"}, {"measurement": "Protozoa, Entodinia", "setting": "[3]; barley", "value": "38^b × 10^3 no/mL"}, {"measurement": "Protozoa, Entodinia", "setting": "[3]; corn", "value": "28^bc × 10^3 no/mL"}]}]}
